In patent US20250064789A1, “KETOAMIDE DERIVATIVES AND PHARMACEUTICAL USES THEREOF” (priority 2022, published 2025):
Where two headings read alike, the source gives them in different places.

Biological target: recombinant SARS-CoV-2 M^pro (Severe acute respiratory syndrome coronavirus 2 (2019-nCoV) (SARS-CoV-2), UniProt P0DTD1)
Assay: Inhibition of SARS-CoV-2 M^pro enzyme activity (fluorescent substrate assay)
Assay type: biochemical
Settings: inhibition of SARS-CoV-2 M^pro enzyme activity, read-out: IC50

| SMILES | IC50 (values in nM) | IC50 (values given in μM) |
| --- | --- | --- |
| C[C@@H](NC(=O)C1CCc2cc(F)ccc2O1)C(=O)N[C@H](Cc1ccccc1)C(=O)C(=O)NCc1ccccn1 (some centres unmarked) [Compound 85] | 56.7 ± 2.7 nM | – |
| O=C(NCc1ccccn1)C(=O)[C@@H](Cc1ccccc1)NC(=O)C1(NC(=O)C2CC(=O)N(c3ccccc3)C2)CCC1 (some centres unmarked) [Compound 190] | 29.6 nM | – |
| O=C(CCC(F)(F)F)NC1(C(=O)N[C@H](Cc2ccccc2)C(=O)C(=O)NCc2ccccn2)CCC1 [Compound 213] | 41.4 ± 0.8 nM | – |
| C[C@@H](NC(=O)C1CCC(F)(F)CC1)C(=O)N[C@H](Cc1ccccc1)C(=O)C(=O)NCc1ccc(F)cn1 [Compound 336] | 15 ± 0.8 nM | – |
| C[C@@H](OCc1cccc(OC(F)(F)F)c1)C(=O)N[C@H](Cc1ccccc1)C(=O)C(=O)NCc1ccccn1 [Compound 5] | 15.4 ± 0.7 nM | – |
| O=C(Cn1nc(-c2ccc(F)cc2)cc1C(F)(F)F)N[C@H](Cc1ccccc1)C(=O)C(=O)NCc1nccs1 [Compound 530] | 32.5 ± 1.1 nM | – |
| O=C(CNC(=O)c1ccc(F)c(Cl)c1)N[C@H](Cc1ccccc1)C(=O)C(=O)NCc1ccccn1 [Compound 441] | 18.5 ± 0.3 nM | – |
| C=C[C@@H]1C[C@]1(NC(=O)C1CCC(F)(F)CC1)C(=O)N[C@H](Cc1ccccc1)C(=O)C(=O)NCc1ccccn1 [Compound 229] | 33.8 ± 1 nM | – |
| C[C@@H](NC(=O)Cc1cc(C(C)(C)C)nn1-c1ccccc1)C(=O)N[C@H](Cc1ccccc1)C(=O)C(=O)NCc1ccccn1 [Compound 64] | 16.1 ± 0.2 nM | – |
| O=C(NCc1nccs1)C(=O)[C@@H](Cc1ccccc1)NC(=O)[C@H]1CC(F)(F)CN1C(=O)[C@@H]1C[C@@H]2[C@H](C1)C2(F)F [Compound 406] | 52.7 ± 1.1 nM | – |
| O=C(NCc1ccccn1)C(=O)[C@@H](Cc1ccccc1)NC(=O)C1(NC(=O)c2[nH]nc3c2COCC3)CCC1 [Compound 200] | 219.3 ± 0.6 nM | – |
| O=C(CC1CC1(F)F)NCC(=O)N[C@H](Cc1ccccc1)C(=O)C(=O)NCc1cscn1 (some centres unmarked) [Compound 425] | 36.5 ± 0.3 nM | – |
| CC(Oc1ccc(Cl)cc1Cl)C(=O)N[C@H](C)C(=O)N[C@H](Cc1ccccc1)C(=O)C(=O)NCc1ccccn1 (some centres unmarked) [Compound 88] | 24.4 nM | – |
| C[C@@H](NC(=O)OCc1ccccc1)C(=O)N[C@H](Cc1ccccc1)C(=O)C(=O)NCc1ccccn1 [Compound 316] | 15.9 ± 0.4 nM | – |
| O=C(NCc1nccs1)C(=O)[C@@H](Cc1ccccc1)NC(=O)[C@H]1COCCN1C(=O)C1CCC(F)(F)CC1 [Compound 407] | 21.4 ± 0.3 nM | – |
| C[C@@H](NC(=O)c1ccc(Cl)c(F)c1)C(=O)N[C@H](Cc1ccccc1)C(=O)C(=O)NCc1ccccn1 [Compound 98] | 40.7 ± 1.9 nM | – |
| C[C@@H](NC(=O)C1CCC(F)(F)CC1)C(=O)N[C@H](Cc1ccccc1)C(=O)C(=O)NCc1cscn1 [Compound 357] | 22.3 ± 0.9 nM | – |
| O=C(Cn1cc(-c2cc(F)ccc2F)cn1)N[C@H](Cc1ccccc1)C(=O)C(=O)NCc1nccs1 [Compound 507] | 12.6 ± 0.4 nM | – |
| CC1(C)C(C(=O)NC2(C(=O)N[C@H](Cc3ccccc3)C(=O)C(=O)NCc3ccccn3)CCC2)C1(C)C [Compound 192] | 25.4 ± 0.9 nM | – |
| O=C(NCc1ccccn1)C(=O)[C@@H](Cc1ccccc1)NC(=O)[C@@H]1CCCN1C(=O)[C@@H](NC(=O)c1cnccn1)C1CCCCC1 [Compound 280] | 13.2 ± 1.2 nM | – |
| CC(C)(OCc1ccc(Cl)cc1)C(=O)N[C@H](Cc1ccccc1)C(=O)C(=O)NCc1nccs1 [Compound 485] | 33.3 ± 1.7 nM | – |
| COC(=O)C[C@@H](NC(=O)CC1CC(F)(F)C1)C(=O)N[C@H](Cc1ccccc1)C(=O)C(=O)NCc1nccs1 [Compound 574] | 14.4 ± 0.8 nM | – |

| SMILES | IC50 (values in nM) | IC50 (values given in μM) |
| --- | --- | --- |
| O=C(NCc1nccs1)C(=O)[C@@H](Cc1ccccc1)NC(=O)[C@H]1COCCN1C(=O)C1CCCC(F)(F)C1 (some centres unmarked) [Compound 410] | 25.3 ± 1.7 nM | – |
| O=C(CNC(=O)C1CCC(F)(F)CC1)N[C@H](Cc1ccc(Cl)cc1)C(=O)C(=O)NCc1ccccn1 [Compound 447] | 187.3 ± 1.1 nM | – |
| C[C@@H](NC(=O)CC1CCOC(C)(C)C1)C(=O)N[C@H](Cc1ccccc1)C(=O)C(=O)NCc1ccccn1 (some centres unmarked) [Compound 136] | 96.5 ± 2.2 nM | – |
| O=C(COC1CCCC1)NC1(C(=O)N[C@H](Cc2ccccc2)C(=O)C(=O)NCc2ccccn2)CCC1 [Compound 207] | 46.1 ± 0.9 nM | – |
| O=C(NCc1ccccn1)C(=O)[C@@H](Cc1ccccc1)NC(=O)[C@H]1CC(F)(F)CN1C(=O)C1(F)CCCCC1 [Compound 277] | 30.7 ± 0.6 nM | – |
| O=C(CNC(=O)C1CCC(F)(F)C1)N[C@H](Cc1ccccc1)C(=O)C(=O)NCc1cscn1 (some centres unmarked) [Compound 429] | 33.8 ± 1 nM | – |
| O=C(Cc1noc(-c2ccc(F)c(Cl)c2)n1)N[C@H](Cc1ccccc1)C(=O)C(=O)NCc1nccs1 [Compound 526] | 28.4 ± 1.5 nM | – |
| C[C@@H](OCc1ccccc1)C(=O)N[C@H](Cc1ccccc1)C(=O)C(=O)N(C)Cc1ccccn1 [Compound 41] | – | > 2500 nM |
| O=C(NCc1ccccn1)C(=O)[C@@H](Cc1ccccc1)NC(=O)[C@@H]1C[C@H]2C[C@H]2N1C(=O)C1CCC(F)(F)CC1 [Compound 268] | 296 ± 3.8 nM | – |
| C[C@@H](NC(=O)N1CCC(F)(F)CC1)C(=O)N[C@H](Cc1ccccc1)C(=O)C(=O)NCc1nccs1 [Compound 414] | 95.9 ± 9.7 nM | – |
| O=C(NCc1ccccn1)C(=O)[C@@H](Cc1ccccc1)NC(=O)[C@H]1Cc2ccccc2CN1C(=O)NCC1CC(F)(F)C1 [Compound 310] | 12.4 nM | – |
| O=C(Cn1cc(-c2cccc(F)c2)cn1)N[C@H](Cc1ccccc1)C(=O)C(=O)NCc1nccs1 [Compound 492] | 66.3 ± 6.1 nM | – |
| O=C(CNC(=O)c1cccc(F)c1)N[C@H](Cc1ccccc1)C(=O)C(=O)NCc1nccs1 [Compound 482] | 538.2 ± 4.3 nM | – |
| C[C@@H](NC(=O)C1CC12CCC(F)(F)CC2)C(=O)N[C@H](Cc1ccccc1)C(=O)C(=O)NCc1nccs1 (some centres unmarked) [Compound 372] | 10.6 ± 0.4 nM | – |
| O=C(CNC(=O)C1CCC(F)(F)CC1)N[C@H](Cc1cccc(Cl)c1)C(=O)C(=O)NCc1ccccn1 [Compound 448] | 59.9 ± 0.5 nM | – |
| O=C(COc1ccc(F)cc1)N[C@H](Cc1ccccc1)C(=O)C(=O)NCc1ccccn1 [Compound 54] | 298.4 ± 2.9 nM | – |
| O=C(CNC(=O)[C@@H]1C[C@@H]2[C@H](C1)C2(F)F)N[C@H](Cc1ccccc1)C(=O)C(=O)NCc1nccs1 [Compound 389] | 110 ± 1.6 nM | – |
| C[C@@H](OCc1ccc(Cl)cc1)C(=O)N[C@H](Cc1ccccc1)C(=O)C(=O)NCc1ccc(Cl)cn1 [Compound 45] | 14.7 ± 1 nM | – |
| O=C(NCc1nccs1)C(=O)[C@@H](Cc1ccccc1)NC(=O)c1cnn(Cc2cc(F)c(F)cc2F)c1 [Compound 490] | – | 5210 ± 720 nM |
| O=C(CN1C(=O)CN(c2cc(F)c(F)c(F)c2)C1=O)N[C@H](Cc1ccccc1)C(=O)C(=O)NCc1nccs1 [Compound 522] | 74.7 ± 4.2 nM | – |
| O=C(NCc1ccccn1)C(=O)[C@@H](Cc1ccccc1)NC(=O)C1(NC(=O)C23CC4CC(CC(O)(C4)C2)C3)CCC1 [Compound 199] | 52.7 ± 1 nM | – |
| O=C(Cn1cc(-c2ccc(F)c(Cl)c2)cn1)N[C@H](Cc1ccccc1)C(=O)C(=O)NCc1nccs1 [Compound 497] | 36 ± 2.4 nM | – |

| SMILES | IC50 (values in nM) | IC50 (values given in μM) |
| --- | --- | --- |
| C[C@@H](NC(=O)C1CCC(F)(F)CC1)C(=O)N[C@H](Cc1ccccc1)C(=O)C(=O)NCc1nccn1C [Compound 347] | – | > 2500 nM |
| O=C(CNC(=O)NC1CCC(F)(F)CC1)N[C@H](Cc1ccccc1)C(=O)C(=O)NCc1ccccn1 [Compound 305] | 24.3 ± 0.4 nM | – |
| O=C(CNC(=O)C1CCCC(F)(F)C1)N[C@H](Cc1ccccc1)C(=O)C(=O)NCc1cscn1 (some centres unmarked) [Compound 430] | 20 ± 0.5 nM | – |
| CC(C)(OCc1ccc(F)cc1)C(=O)N[C@H](Cc1ccccc1)C(=O)C(=O)NCc1ccccn1 [Compound 22] | 18.6 ± 1.7 nM | – |
| CC(C)(NC(=O)[C@H](NC(=O)c1cnccn1)C1CCCCC1)C(=O)N[C@H](Cc1ccccc1)C(=O)C(=O)NCc1ccccn1 [Compound 180] | 31.8 ± 0.9 nM | – |
| COC[C@@H](NC(=O)C1CCCC(F)(F)C1)C(=O)N[C@H](Cc1ccccc1)C(=O)C(=O)NCc1cocn1 (some centres unmarked) [Compound 560] | 22.1 ± 0.7 nM | – |
| N#Cc1ccc(OCC(=O)NC2(C(=O)N[C@H](Cc3ccccc3)C(=O)C(=O)NCc3ccccn3)CCC2)cc1 [Compound 208] | 37.1 ± 1.7 nM | – |
| O=C(NCc1ccccn1)C(=O)[C@@H](Cc1ccccc1)NC(=O)C1(NC(=O)C2C3COCC32)CCC1 (some centres unmarked) [Compound 211] | 57.7 ± 3 nM | – |
| COC[C@@H](NC(=O)C1CCC(F)(F)CC1)C(=O)N[C@H](Cc1ccccc1)C(=O)C(=O)NCc1ccccn1 [Compound 222] | 16.5 ± 1.5 nM | – |
| C[C@@H](NC(=O)C1CCC(F)(F)CC1)C(=O)N[C@H](Cc1ccccc1)C(=O)C(=O)NCc1ncco1 [Compound 352] | – | 2500 ± 290 nM |
| O=C(CNC(=O)[C@@H]1C[C@@H]2[C@H](C1)C2(F)F)N[C@H](Cc1ccccc1)C(=O)C(=O)NCc1cscn1 [Compound 424] | 20.7 ± 0.2 nM | – |
| O=C(NCc1ccccn1)C(=O)[C@@H](Cc1ccccc1)NC(=O)[C@@H]1CC(F)(F)CN1C(=O)[C@@H]1C[C@@H]2[C@H](C1)C2(F)F [Compound 453] | 37.2 ± 0.2 nM | – |
| O=C(NCc1ccccn1)C(=O)[C@@H](Cc1ccccc1)NC(=O)C1(NC(=O)C2CC3CCC2C3)CCC1 (some centres unmarked) [Compound 214] | 17.4 ± 0.5 nM | – |
| C[C@@H](NC(=O)C1C[C@@H]2[C@H](C1)C2(F)F)C(=O)N[C@H](Cc1ccco1)C(=O)C(=O)NCc1ccccn1 (some centres unmarked) [Compound 366] | 64.6 ± 0.7 nM | – |
| COC[C@@H](NC(=O)CC1CCC(F)(F)CC1)C(=O)N[C@H](Cc1ccccc1)C(=O)C(=O)NCc1nccs1 [Compound 394] | 12.4 ± 1.4 nM | – |
| O=C(NCc1ccccn1)C(=O)[C@@H](Cc1ccccc1)NC(=O)[C@H]1CC2CCCCC2N1C(=O)N1CCC(F)(F)CC1 (some centres unmarked) [Compound 309] | 19.4 nM | – |
| O=C(CC1CC(F)(F)C1)NC1(C(=O)N[C@H](Cc2ccccc2)C(=O)C(=O)NCc2nccs2)CC(F)(F)C1 [Compound 547] | 25.1 ± 1 nM | – |
| C[C@@H](NC(=O)COc1ccc2ccccc2c1)C(=O)N[C@H](Cc1ccccc1)C(=O)C(=O)NCc1ccccn1 [Compound 91] | 48.4 ± 2 nM | – |
| CC(C)[C@@H](NC(=O)C1CCC(F)(F)CC1)C(=O)N[C@H](Cc1ccccc1)C(=O)C(=O)NCc1ccccn1 [Compound 242] | 26.8 ± 1.8 nM | – |
| C[C@@H](NC(=O)COc1ccccc1F)C(=O)N[C@H](Cc1ccccc1)C(=O)C(=O)NCc1ccccn1 [Compound 70] | 22.9 ± 0.3 nM | – |
| C[C@@H](NC(=O)C1CCC(F)(F)CC1)C(=O)N[C@H](Cc1cccc(F)c1)C(=O)C(=O)NCc1ccccn1 [Compound 360] | 31 ± 3.9 nM | – |
